Test results from patent publication US5610297A, “Peptides ketoamides” (Georgia Tech Research Corp., priority 1995, dated 1997).

Key:
[1] = test system: Calpain-mediated breakdown of spectrin in platelets; experiment: Platelet membrane permeability assay; format: cell-based, rat; set-up: key: +++ = excellent activity; ++ = good activity; + = moderate activity; quantitative measurements not yet complete; settings: class symbols; quantitative measurements not yet complete
Protocol: Platelet membrane permeability assay. Calpain-mediated breakdown of spectrin was measured by quantitative densitometry of the calpain-specific 150/155 kDa spectrin fragment doublet [see Siman et al., Proc. Natl. Acad. Sci. USA 81, 3572-3576 (1984)]. Platelets were isolated by a modification of the method of Ferrell and Martin [J. Biol. Chem. 264, 20723-20729 (1989)]. Blood (15-20 ml) was drawn from male Sprague-Dawley rats into 1/10th volume of 100 mM EDTA-citrate, and centrifuged 10 minutes at 2000 rpm in a clinical centrifuge at room temperature. […] Platelets were washed once in 15 ml buffer 1, then resuspended to 10^7 cells/ml in buffer 2 (136 mM NaCl, 2.7 mM KCl, 0.42 mM NaH2 PO4, 12 mM NaHCO3, 2mM MgCl, 1 mg/ml BSA (Sigma), 5.6 mM glucose, 20 mM HEPES (Sigma) pH 7.4) and allowed to "rest" for a minimum of 10 minutes at room temperature before use.
Inhibitors were added from stock solutions made fresh in DMSO. 100 μl platelets, suspended to 10^7 cells/ml in buffer 2, were incubated with 1 μl of an inhibitor solution for 5 minutes at room temperature prior to the addition of 2 mM Ca^2+ and 1 uM A23 187. After 10 minutes total exposure to inhibitor (5 minutes exposure to ionophore) at room temperature, platelets were reisolated at 14,000 rpm for 10 sec in a Beckman microfuge, dissolved in SDS-PAGE sample buffer, and heated to 90° C. for 3 minutes.
Samples were subjected to SDS-PAGE in 4-12% gradient mini gels (Novex) and transferred to nitrocellulose (Schleicher and Schuell 0.45 um) by electroblotting. Filters were blocked for 10 minutes in 0.25% gelatin, 1% BSA, 0.25% triton X100, 0.9% NaCl, 10 mM Tris-Cl pH 7.5, incubated overnight in the same solution containing antibody to rat spectrin, washed 3×10 minutes with 10 mM Tris-Cl pH 7.5, 0.5% triton X100, incubated 4 hours in wash buffer plus alkaline phosphatase conjugated goat anti-rabbit antibody (Biorad), and washed as above. Blots were developed using the Biorad AP conjugate substrate kit. Quantitative densitometry was used to obtain values for the intact spectrin bands and the 150/155 kDa breakdown product doublet.

papain = target: T1, papain (Carica papaya, UniProt P00784); settings: reported by Hu and Abeles; cited from earlier work
T1 sequence (P00784 134-345): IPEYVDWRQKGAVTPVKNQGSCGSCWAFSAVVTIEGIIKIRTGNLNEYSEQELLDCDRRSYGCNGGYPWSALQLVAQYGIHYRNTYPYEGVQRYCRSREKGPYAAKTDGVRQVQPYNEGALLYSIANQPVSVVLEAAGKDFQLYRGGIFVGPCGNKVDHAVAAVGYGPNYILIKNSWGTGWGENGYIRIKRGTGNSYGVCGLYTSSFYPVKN

cathepsin B = cathepsin B (Homo sapiens, UniProt P07858); settings: reported by Hu and Abeles; cited from earlier work
Half-life in plasma = format: in vitro ADME; settings: unit inferred, unit assumed

Row | SMILES | platelet (Activity in the Platelet Assay) [1] | Ki (papain) | Ki (cathepsin B) | t 1/2 plasma (Half-life in plasma)
1 | CC[C@H](NC(=O)[C@H](CC(C)C)NC(=O)OCc1ccccc1)C(=O)C(=O)OCc1ccccc1 [Z--Leu--Abu--COOBzl] | ++ | – | – | –
2 | CCNC(=O)C(=O)CNC(=O)[C@H](Cc1ccccc1)NC(=O)OCc1ccccc1 [Z-Phe-Gly-CO--NH-Et] | – | 1.5 µM | 4 µM | –
3 | CC(C)CC(NC(=O)OCc1ccccc1)C(=O)NC(Cc1ccccc1)C(=O)C(=O)OCc1ccccc1 (stereo not shown) [Z--Leu--Phe--COOBz] | ++ | – | – | 1.9 min
4 | CCCCOC(=O)C(=O)[C@H](Cc1ccccc1)NC(=O)[C@H](CC(C)C)NC(=O)OCc1ccccc1 [Z--Leu--Phe--COOnBu] | +++ | – | – | 7.7 min
5 | CCOC(=O)C(=O)[C@H](Cc1ccccc1)NC(=O)[C@H](CC(C)C)NC(=O)[C@H](CC(C)C)NC(=O)OCc1ccccc1 [Z--Leu--Leu--Phe--COOEt] | ++ | – | – | –
6 | CCOC(=O)C(=O)C(CCSC)NC(=O)C(CC(C)C)NC(=O)OCc1ccccc1 (stereo not shown) [Z--Leu--Met--COOEt] | + | – | – | 8 min
